Assays:
[1] = DMPK study in cynomolgus monkey; format: in vivo; details: male cynomolgus monkey, plasma; for Cmax / Oral DNAUC / bioavailability: oral 3 mg/kg; for Vd: read-out: Vdss
Method: Male cynomolgus monkey were used as test animals, after a single dose, the plasma concentration of the compound was determined and the pharmacokinetic behavior was evaluated.
Two healthy male cynomolgus monkeys were selected as the oral group. The solvent of the oral group was 20% PEG 400+10% solutol+70% water. The compounds to be tested were mixed with the solvent, the mixture was votexed and sonicated to prepare a 0.5 mg/mL approximately clear solution. The oral dosage of cynomolgus monkeys was 3 mg/kg, after oral administration, the whole blood of cynomolgus monkeys was collected for a certain period of time, and the plasma was prepared, the drug concentration was analyzed by LC-MS/MS, and the pharmacokinetic parameters were calculated by Phoenix WinNonlin software (Pharsight Company, USA).

hERG potassium channel = target: T1, hERG potassium channel (Homo sapiens, UniProt Q12809); test: hERG test (automatic patch clamp, CHO-hERG cells); format: cell-based; details: hERG current; for IC50: Qpatch; for Maximum concentration inhibition rate (%): highest test concentration 40 μM
T1 construct: expressed in transfected cells; host or cells: CHO-hERG cells
Method: The effects of compounds on the current of hERG potassium channel (human Ether-a-go-go Related Gene potassium channel) were measured by the automatic patch clamp method.
CHO-hERG cells were cultured in a 175 cm^2 flask, when the cell density reached 60-80%, the culture medium was removed, the cells were washed once with 7 mL of PBS (Phosphate Buffered Saline), and then detached with 3 mL of Detachin. After digestion was completed, 7 mL of culture medium was added to neutralize, then the mixture was centrifuged, the supernatant was aspirated, and then 5 mL of culture medium was added to re-suspend, ensuring 2-5×10^6/mL of cell density.
Extracellular fluid formulation (mM): 140 NaCl, 5 KCl, 1 CaCl2, 1.25 MgCl2, 10 HEPES and 10 Glucose, the pH value was adjusted to 7.4 with NaOH.
Intracellular fluid formulation (mM): 140 KCl, 1 MgCl2, 1 CaCl2, 10 EGTA and 10 HEPES, the pH value was adjusted to 7.2 with KOH.
The process of single cell high impedance sealing and whole cell mode formation were all automatically completed by Qpatch instrument, after obtaining the whole cell recording mode, the cells were clamped at −80 mV, before giving a 5-second+40 mV depolarization stimulus, a 50 millisecond −50 mV prevoltage was given first, and then repolarized to −50 mV for 5 seconds, then returned to −80 mV. This voltage stimulation was applied every 15 seconds and after recording for 2 minutes, extracellular fluid was recordings for 5 minutes, and then the administration process was started, the compound concentration was given from the lowest test concentration, each test concentration was given for 2.5 minutes, and 3 μM of Cisapride as the positive control compound was given after all concentrations were continuously given. At least 3 cells (n>3) were tested at each concentration.
The mother liquor of the compound was diluted with DMSO, and 10 μL of mother liquor of the compound was added to 20 μL of DMSO solution, and was 3-fold diluted continuously to 6 DMSO concentrations. 4 μL of compounds with 6 DMSO concentrations were added to 396 μL of extracellular fluid, 100-fold diluted to 6 intermediate concentrations, and then 80 μL of the compounds with 6 intermediate concentrations were added to 320 μL of extracellular fluid, 5-fold diluted to the final concentration to be tested. The highest test concentration was 40 μM, in a total of 6 concentrations of 40, 13.3, 4.4, 1.48, 0.494 and 0.165 μM respectively. The content of DMSO in the final test concentration was not more than 0.2%, and this concentration of DMSO had no effect on hERG potassium channel. The whole dilution process of compound preparation was completed by Bravo instrument.
The experimental data were analyzed by GraphPad Prism 5.0 software. […]

Human-GLP1 = target: T2, Human-GLP1 (Homo sapiens, UniProt P43220); test: In vitro cell activity test (cAMP detection, GLP-1 HEK293 cells); format: cell-based; details: HEK293 cells expressing GLP-1 target
T2 construct: the earlier reading says HEK293
Method: Experimental Embodiment 1. In Vitro Cell Activity Test
The cell was constructed by Shanghai WuXi AppTec New Pharmaceutical Development Co., Ltd. The detailed information is as follows.
The compound was formulated to a working concentration of 30 μM with DMSO. In this experiment, the amount of each sample used was 5 μL.
The pH value was adjusted to 7.4 and diluted to 25 mL with HBSS 1×.
Preparation of cAMP detection reagent, 250 μL of cAMP-D2 and 250 μL of anti-cAMP cryptate reagent were added to 4 mL of lysis buffer, and the mixture was mixed gently.
The compound to be tested was 3-fold diluted at 10 points, the initial concentration was 30 μM, and the dilution was completed and treated by Bravo.
The reference compound exenatide was 3-fold diluted at 10 points, the initial concentration was 500 nM, and the dilution was completed and treated by Bravo.
• 1) 100 nL of the compound was transferred to OptiPlate-384 plate using Echo. • 2) The OptiPlate-384 plate was centrifuged at 1000 rpm for 5 seconds. c) Preparation of Cell Suspension • 1) A cryopreservation tube of GLP-1 cells was quickly thawed in 37° C. warm water. • 2) The cell suspension was transferred to a Transfer 15 mL centrifuge tube, and rinsed gently with 10 mL of HBSS. • 3) The centrifuge tube was centrifuged at 1000 rpm for 1 minute at room temperature. • 4) The supernatant was discarded. • 5) The bottom cells were gently homogenized and then gently rinsed with 10 mL of HBSS, centrifuged and settled, the cells were finally re-suspend with experimental buffer. • 6) Cell density and activity were measured by Vi-cell. • 7) The concentration of GLP-1 cells was diluted to 2.0*10^5/mL with experimental buffer. • 8) […] of diluted cell suspension was transferred into OptiPlate-384 plate. • 9) The cells was incubated at room temperature for 30 minutes. d) Detection Reagent was Added: • 1) 10 μL of 800 nM gradient diluted cAMP standard was added to the empty well of OptiPlate-384 plate. • 2) 10 μL of cAMP detection reagent was added. • 3) The OptiPlate-384 plate was covered with TopSeal-A film and incubated at room temperature for 60 minutes.
TopSeal-A was removed and read by EnVision.

MDR1-MDCKII cells = test: Permeability test (MDR1-MDCKII monolayer cell model); format: in vitro ADME; details: 2.00 μM, low/high boundaries equivalent to 50% and 80% of human calculated Fa
Method: (§1) The objective of this study was to determine the bidirectional permeability and efflux rate of the samples by using MDR1-MDCKII monolayer cell model.
(§2) MDR1-MDCKII cells (11th generation) were inoculated into 96-well cell culture plate and cultured continuously for 4-7 days for transport experiment. The sample was administered in both directions at a concentration of 2.00 μM. After incubation for 150 min, the sample was collected and the content of the test product in the sample was determined by liquid chromatography-tandem mass spectrometry (LC-MS/MS).
(§3) When the administration concentration was 2.00 μM, the average apparent permeability coefficient (Papp) of the test product from the top to the basal end (A-B) direction, the average apparent permeability coefficient from the basal end to the top (B-A) direction, and the efflux ratio (ER) are shown in Table 5. Note: The boundaries of low and high permeability grades were equivalent to 50% and 80% of human “calculated Fa”. The grading criteria were based on WuXi AppTec's routine MDR1-MDCK II permeability test (test concentration was 2 μM, incubation for 2.5 hours).

MDR1 (P-gp) = test: as above; format: in vitro ADME; details: dog, MDCK-MDR1, incubation 150 min, read-out: Efflux rate
Method: as §1, §2, §3

[2] = as above; format: in vitro ADME; details: dog, MDCK-MDR1, incubation 150 min; for Papp B→A at 150 min, 2 μM: basal end to top; for Papp A→B at 150 min, 2 μM: top to basal end
Method: as §1, §2, §3

DMPK study in mice = format: in vivo; details: male C57 mice, plasma; for Oral DNAUC / bioavailability / Cmax: oral 5 mg/kg; for Oral DNAUC: DNAUC=AUCPO/Dose; for half-life / bioavailability / clearance / Vd / Cmax: mouse; for half-life: oral, 5 mg/kg; for half-life / clearance / Vd: single dose; for Vd: read-out: Vdss
Method: Male C57 mice were used as test animals, after a single dose, the plasma concentration of the compound was determined and the pharmacokinetic behavior was evaluated.
Three healthy adult male C57 mice were selected as oral group. In the oral group, the solvent was 20% PEG400/10% solutol/70% water, the compounds to be tested were mixed with the solvent, the mixture was votexed and sonicated to prepare a 0.5 mg/mL clear solution. After oral administration of 5 mg/kg, the whole blood of mice was collected for a certain period of time, and the plasma was prepared, the drug concentration was analyzed by LC-MS/MS, and the pharmacokinetic parameters were calculated by Phoenix WinNonlin software (Pharsight Company, USA).
Note: -- refers to untested; PEG refers to polyethylene glycol; solutol refers to polyethylene glycol-15 hydroxystearate; Cmax refers to maximum concentration; DNAUC=AUCPO/Dose, AUCPO refers to oral exposure and Dose refers to drug dose; Vdss refers to distribution volume; Cl refers to clearance rate; T1/2 refers to half-life.

T2 sequence (P43220 24-463): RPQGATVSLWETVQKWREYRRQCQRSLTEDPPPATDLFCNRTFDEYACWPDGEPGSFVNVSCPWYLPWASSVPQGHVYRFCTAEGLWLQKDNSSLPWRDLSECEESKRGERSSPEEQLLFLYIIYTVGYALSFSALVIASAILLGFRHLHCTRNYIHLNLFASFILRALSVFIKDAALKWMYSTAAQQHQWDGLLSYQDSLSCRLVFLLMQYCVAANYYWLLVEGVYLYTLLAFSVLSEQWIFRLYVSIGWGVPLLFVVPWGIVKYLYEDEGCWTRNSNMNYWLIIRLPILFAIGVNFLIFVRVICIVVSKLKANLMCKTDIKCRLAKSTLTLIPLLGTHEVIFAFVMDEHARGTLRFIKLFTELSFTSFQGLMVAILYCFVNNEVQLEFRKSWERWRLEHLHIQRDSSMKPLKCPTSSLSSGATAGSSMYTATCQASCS
T1 sequence (Q12809 whole entry): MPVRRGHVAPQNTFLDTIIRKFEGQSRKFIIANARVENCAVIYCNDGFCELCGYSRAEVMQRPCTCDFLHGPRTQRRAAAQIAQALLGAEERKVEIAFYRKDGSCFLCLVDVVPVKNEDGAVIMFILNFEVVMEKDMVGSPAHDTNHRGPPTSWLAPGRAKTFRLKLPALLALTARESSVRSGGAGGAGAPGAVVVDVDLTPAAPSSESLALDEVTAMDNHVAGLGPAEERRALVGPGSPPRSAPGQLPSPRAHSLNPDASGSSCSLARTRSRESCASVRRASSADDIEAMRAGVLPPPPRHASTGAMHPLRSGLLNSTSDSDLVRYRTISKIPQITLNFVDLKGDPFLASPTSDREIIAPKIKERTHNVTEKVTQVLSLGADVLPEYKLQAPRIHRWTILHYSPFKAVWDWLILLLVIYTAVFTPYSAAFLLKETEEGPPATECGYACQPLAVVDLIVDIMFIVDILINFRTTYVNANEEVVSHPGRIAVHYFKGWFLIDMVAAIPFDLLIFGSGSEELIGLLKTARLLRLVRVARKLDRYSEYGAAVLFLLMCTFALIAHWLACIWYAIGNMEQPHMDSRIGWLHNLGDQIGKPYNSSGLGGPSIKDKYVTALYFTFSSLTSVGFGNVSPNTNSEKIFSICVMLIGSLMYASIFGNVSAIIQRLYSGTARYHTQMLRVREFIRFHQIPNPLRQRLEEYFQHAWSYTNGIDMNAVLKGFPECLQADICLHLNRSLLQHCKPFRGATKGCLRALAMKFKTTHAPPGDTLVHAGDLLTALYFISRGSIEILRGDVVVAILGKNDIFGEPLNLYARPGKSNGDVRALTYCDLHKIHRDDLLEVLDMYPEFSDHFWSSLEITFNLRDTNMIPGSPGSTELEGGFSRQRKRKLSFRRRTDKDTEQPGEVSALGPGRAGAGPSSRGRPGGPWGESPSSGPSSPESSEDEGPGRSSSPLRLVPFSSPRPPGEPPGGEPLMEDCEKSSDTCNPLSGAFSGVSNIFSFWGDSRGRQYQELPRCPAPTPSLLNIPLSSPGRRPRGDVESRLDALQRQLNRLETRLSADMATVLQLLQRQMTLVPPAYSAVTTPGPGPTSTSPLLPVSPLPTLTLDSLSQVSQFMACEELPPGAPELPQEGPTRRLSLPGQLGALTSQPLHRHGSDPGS

SMILES: N#Cc1ccc(COc2cccc(C3=CCN(Cc4nc5sc(C(=O)O)cc5n4C[C@@H]4CCO4)CC3)n2)c(F)c1 [WXA001]
- Cmax [1]: 28.3 nM
- Oral DNAUC [1]: 74 nM.h/mpk
- bioavailability [1]: 5.6%
- clearance ([1]; single dose): 22.7 mL/min/kg
- Vd ([1]; single dose): 0.73 L/kg
- IC50 (hERG potassium channel): > 40000 nM
- Maximum concentration inhibition rate (%) (hERG potassium channel): 30.4%
- EC50 (Human-GLP1): 0.67 nM
- Rank (permeability grade) (MDR1-MDCKII cells): Medium
- efflux ratio at 150 min, 2 μM (MDR1 (P-gp)): 1.53
- Papp B→A at 150 min, 2 μM [2]: 3.87 ×10⁻⁶ cm/s
- Papp A→B at 150 min, 2 μM [2]: 2.53 ×10⁻⁶ cm/s
- Oral DNAUC (DMPK study in mice): 647.4 nM.h/mpk
- half-life (DMPK study in mice): 2.07 h
- bioavailability (DMPK study in mice): 220%
- clearance (DMPK study in mice): 104 mL/min/kg
- Vd (DMPK study in mice): 1.87 L/kg
- Cmax (DMPK study in mice): 1760 nM

SMILES: N#Cc1ccc(COc2cccc(C3=CCN(Cc4nc5cc(C(=O)O)sc5n4C[C@@H]4CCO4)CC3)n2)c(F)c1 [WXA002]
- EC50 (Human-GLP1): 2.7 nM

SMILES: N#Cc1ccc(COc2cccc(C3CCN(Cc4nc5sc(C(=O)O)cc5n4C[C@@H]4CCO4)CC3)n2)c(F)c1 [WXA003]
- EC50 (Human-GLP1): 1.07 nM

SMILES: N#Cc1ccc(COc2cccc(C3CCN(Cc4nc5cc(C(=O)O)sc5n4C[C@@H]4CCO4)CC3)n2)c(F)c1 [WXA004]
- EC50 (Human-GLP1): 1.9 nM

SMILES: O=C(O)c1cc2c(nc(CN3CC=C(c4cccc(OCc5ccc(Cl)cc5F)n4)CC3)n2C[C@@H]2CCO2)s1 [WXA005]
- Cmax [1]: 245 nM
- Oral DNAUC [1]: 889 nM.h/mpk
- half-life ([1]; oral, 3 mg/kg, single dose): 4.94 h
- bioavailability [1]: 31%
- clearance ([1]; single dose): 10.7 mL/min/kg
- Vd ([1]; single dose): 0.59 L/kg
- IC50 (hERG potassium channel): > 40000 nM
- Maximum concentration inhibition rate (%) (hERG potassium channel): 33.1%
- Rank (permeability grade) (MDR1-MDCKII cells): High
- efflux ratio at 150 min, 2 μM (MDR1 (P-gp)): 1.18
- Papp B→A at 150 min, 2 μM [2]: 8.49 ×10⁻⁶ cm/s
- Papp A→B at 150 min, 2 μM [2]: 7.19 ×10⁻⁶ cm/s
- Oral DNAUC (DMPK study in mice): 301.8 nM.h/mpk
- half-life (DMPK study in mice): 2.47 h
- bioavailability (DMPK study in mice): 63%
- clearance (DMPK study in mice): 63.6 mL/min/kg
- Vd (DMPK study in mice): 2.84 L/kg
- Cmax (DMPK study in mice): 835 nM

SMILES: O=C(O)c1cc2nc(CN3CC=C(c4cccc(OCc5ccc(Cl)cc5F)n4)CC3)n(C[C@@H]3CCO3)c2s1 [WXA006]
- EC50 (Human-GLP1): 1.44 nM
- Oral DNAUC (DMPK study in mice): 307.4 nM.h/mpk
- half-life (DMPK study in mice): 1.43 h
- Cmax (DMPK study in mice): 865 nM

SMILES: O=C(O)c1sc2nc(CN3CC=C(c4cccc(OCc5ccc(Cl)cc5F)n4)CC3)n(C[C@@H]3CCO3)c2c1F [WXA007]
- EC50 (Human-GLP1): 0.2 nM

SMILES: Cc1c(C(=O)O)sc2nc(CN3CC=C(c4cccc(OCc5ccc(Cl)cc5F)n4)CC3)n(C[C@@H]3CCO3)c12 [WXA008]
- EC50 (Human-GLP1): 2.46 nM

SMILES: O=C(O)c1cc2c(nc(CN3CC=C(c4cccc(OCc5ccc(Cl)cc5F)c4)CC3)n2C[C@@H]2CCO2)s1 [WXA011]
- EC50 (Human-GLP1): 1.94 nM

SMILES: O=C(O)c1cc2nc(CN3CC=C(c4cccc(OCc5ccc(Cl)cc5F)c4)CC3)n(C[C@@H]3CCO3)c2s1 [WXA012]
- EC50 (Human-GLP1): 9.4 nM

SMILES: N#Cc1ccc(COc2cccc(C3=CCN(Cc4nc5sc(C(=O)O)cc5n4C[C@@H]4CCO4)CC3)c2)c(F)c1 [WXA013]
- EC50 (Human-GLP1): 2.46 nM

SMILES: N#Cc1ccc(COc2cccc(C3=CCN(Cc4nc5cc(C(=O)O)sc5n4C[C@@H]4CCO4)CC3)c2)c(F)c1 [WXA014]
- EC50 (Human-GLP1): 9.6 nM

SMILES: O=C(O)c1cc2c(nc(CN3CC=C(c4ccc(F)c(OCc5ccc(Cl)cc5F)n4)CC3)n2C[C@@H]2CCO2)s1 [WXA015]
- EC50 (Human-GLP1): 1.64 nM

SMILES: O=C(O)c1cc2nc(CN3CC=C(c4ccc(F)c(OCc5ccc(Cl)cc5F)n4)CC3)n(C[C@@H]3CCO3)c2s1 [WXA016]
- EC50 (Human-GLP1): 3.52 nM
